What was measured:
HeLa = experiment: Cytotoxicity against human HeLa cells by MTT assay; type: functional, cell-based
MCF7 = experiment: Cytotoxicity against human MCF7 cells by MTT assay; type: functional, cell-based
HepG2 = experiment: Cytotoxicity against human HepG2 cells by MTT assay; type: functional, cell-based
H9c2 = experiment: Cytotoxicity against rat H9c2 cells by MTT assay; type: cell-based
K562 = experiment: Cytotoxicity against human K562 cells by MTT assay; type: functional, cell-based
[1] = Cytotoxicity against human U87 cells by MTT assay; type: functional, cell-based, U-87MG ATCC; conditions: U-87 MG
[2] = Cytotoxicity against human HL-7702 by MTT assay; conditions: L02
HCT-116 = experiment: Cytotoxicity against human HCT116 cells by MTT assay; type: functional, cell-based
A549 = experiment: Cytotoxicity against human A549 cells by MTT assay; type: functional, cell-based

Q: Which IC50 (HeLa) does the source give for `C[C@@H]1CC[C@@]2(NC1)O[C@H]1C[C@H]3[C@@H]4CC=C5C[C@@H](O[C@@H]6O[C@H](CO)[C@@H](O[C@@H]7O[C@@H](C)[C@H](O)[C@@H](O)[C@H]7O)[C@H](O)[C@H]6O[C@@H]6O[C@@H](C)[C@H](O)[C@@H](O)[C@H]6O)CC[C@]5(C)[C@H]4CC[C@]3(C)[C@H]1[C@@H]2C` [SOLAMARGINE] here?
A: 6 µM

Q: And the IC50 (MCF7)?
A: 2.1 µM

Q: What about the IC50 (HepG2) of the same compound?
A: 2.5 µM

Q: And the IC50 (H9c2)?
A: > 20 µM

Q: And the IC50 (K562)?
A: 5.2 µM

Q: What about the IC50 [1] of the same compound?
A: 3.2 µM

Q: What about the IC50 [2] of the same compound?
A: 13.5 µM

Q: What about the IC50 (HCT-116) of the same compound?
A: 3.8 µM

Q: And the IC50 (A549)?
A: 8 µM
